Laboratory results as given in ChEMBL document CHEMBL1201862, “PubChem BioAssay data set” (2004).
Activity calls are given as the source filed them.

Columns and labels:
[1] = Luminescence Cell-Based Dose Response HTS to Identify Inhibitors of 5'UTR Stem-Loop Driven Prion Protein mRNA Translation in H4 Neuroglioblastoma Cells. [Related pubchem assays: 1827 (Project Summary), 1813 (Primary HTS)]; format: functional
[2] = target: T1, Luciferin 4-monooxygenase (Photinus pyralis, UniProt P08659); assay: inhibition of purified Photinus pyralis luciferase – biochemical, luminescence, dose response (AID 1891)
HT-1080 = assay: HT1080 cell viability loss – fluorescence readout (AID 620); format: functional, cell-based; settings: Homo sapiens
[3] = target: T1, Luciferin 4-monooxygenase; assay: Counter Screen for Luciferase-based Assay Positives. [Related pubchem assays: 620, 618, 411 ]
[4] = alpha-synuclein stem-loop luciferase translation blockers – H4 neuroglioma cells, luminescence, confirmation (AID 1988); format: functional, cell-based
[5] = Luminescence Cell-Based Dose Confirmation HTS to Identify Inhibitors of Platelet Dense Granule Release. [Related pubchem assays: 1663 (Primary HTS), 1678 (Summary of Project)]; format: functional
[6] = viability loss of HPDE-C7K cells – cell-based, fluorescence, HTS, primary screen (AID 431); format: functional; settings: Homo sapiens
[7] = target: Voltage-dependent T-type calcium channel subunit alpha-1H (Homo sapiens, UniProt O95180); format: functional;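 also: channel activity triggered by adding a high calcium stimulation buffer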
[8] = HPDE-C7 pancreatic duct cell viability loss – fluorescence, HTS (AID 430); format: functional, cell-based; settings: Homo sapiens
[9] = target: Mitogen-activated protein kinase 10 (Homo sapiens, UniProt P53779); assay: Dose response biochemical screening assay for inhibitors of c-Jun N-Terminal Kinase 3 (JNK3). [Related pubchem assays: 746 ]
[10] = target: T2, Calpain-2 catalytic subunit (Sus scrofa, UniProt P43367); assay: m-calpain protease blockers, concentration series – biochemical, fluorogenic peptide substrate, dose response (AID 1420); format: functional
T2 sequence (P43367 whole entry): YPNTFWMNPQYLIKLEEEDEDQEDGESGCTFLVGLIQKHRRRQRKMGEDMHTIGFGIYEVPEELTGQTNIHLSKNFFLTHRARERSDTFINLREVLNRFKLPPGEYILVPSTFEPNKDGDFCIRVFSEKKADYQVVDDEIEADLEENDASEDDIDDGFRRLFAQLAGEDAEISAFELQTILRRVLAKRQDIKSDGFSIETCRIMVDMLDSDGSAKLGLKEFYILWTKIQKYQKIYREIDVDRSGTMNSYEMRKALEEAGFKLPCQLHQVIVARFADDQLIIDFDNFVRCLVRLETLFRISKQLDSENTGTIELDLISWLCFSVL

[11] = viability of HCT116 lacking mutant beta-catenin – cell-based, human colon tumor, dose response (AID 1045); format: functional;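 also: HCT116 colon tumor cells with beta catenin knocked out; cells exposed to compound for 60 hours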
[12] = A Cell Based Secondary Assay To Explore Cytotoxicity of Compounds that Sensitize Mycobacterium Tuberculosis to Beta-Lactam Antibiotics.; format: functional
[13] = viability of PTEN-deleted HCT116 cells – cell-based, HCT116 PTEN knockout, dose response (AID 1047); format: functional;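 also: HCT116 colon tumor cells with PTEN knocked out; cells exposed to compound for 60 hours before readout; potency for loss of cell viability measured by luminescence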
cells = format: functional, cell-based
[14] = alpha-synuclein stem-loop translation blockers – luminescence, H4 neuroglioblastoma cells, dose confirmation, confirmation (AID 2454); format: functional, cell-based;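 also: H4 neuroglioblastoma cells carrying an alpha-synuclein 5'UTR luciferase reporter; potency for inhibition of the luciferase signal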
[15] = luciferase reporter signal suppression in cells – H4 neuroglioma cells, luminescence, dose response (AID 1990); format: functional, cell-based
[16] = luciferase reporter signal reduction – luminescence, H4-C neuroglioblastoma cells, dose response (AID 2458); format: functional, cell-based;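 also: H4 neuroglioblastoma cells stably carrying a luciferase reporter gene fusion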
Nonstructural protein 1 = Nonstructural protein 1 (Influenza A virus, UniProt Q194T2); format: functional, Influenza A virus (A/California/07/2009(H1N1))
Large T antigen = Large T antigen (Simian virus 40, UniProt P03070); format: functional, Betapolyomavirus macacae;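 also: Confirmatory-stage PubChem screen for compounds that inhibit SV40 T antigen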
[17] = HEK-293T viability loss after treatment – luminescence, T-cell screen hits, cytotoxicity control for TCR NF-kB inhibitor project, dose response (AID 489026); format: functional, cell-based;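 also: cells exposed to compound about 14 hours before the viability readout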
Estrogen receptor beta = Estrogen receptor beta (Homo sapiens, UniProt Q92731);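 also: recombinant ER-beta bound to coactivator SRC1 peptide in presence of estradiol agonist; inhibitors block coactivator peptide binding and lower the FRET signal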
[18] = target: T3, Aryl hydrocarbon receptor (Homo sapiens, UniProt P35869); assay: Luminescence-based cell-based high throughput dose response assay for activators of the Aryl Hydrocarbon Receptor (AHR). [Related pubchem assays: 2796 (Primary screen (AHR activators in singlicate)), 2845 (Confirmation screen (AHR activators in triplicate)), 434939 (Counterscreen (PXR activators in triplicate)), 2804 (Summary (AHR activators))]; format: ADME
T3 sequence (P35869 whole entry): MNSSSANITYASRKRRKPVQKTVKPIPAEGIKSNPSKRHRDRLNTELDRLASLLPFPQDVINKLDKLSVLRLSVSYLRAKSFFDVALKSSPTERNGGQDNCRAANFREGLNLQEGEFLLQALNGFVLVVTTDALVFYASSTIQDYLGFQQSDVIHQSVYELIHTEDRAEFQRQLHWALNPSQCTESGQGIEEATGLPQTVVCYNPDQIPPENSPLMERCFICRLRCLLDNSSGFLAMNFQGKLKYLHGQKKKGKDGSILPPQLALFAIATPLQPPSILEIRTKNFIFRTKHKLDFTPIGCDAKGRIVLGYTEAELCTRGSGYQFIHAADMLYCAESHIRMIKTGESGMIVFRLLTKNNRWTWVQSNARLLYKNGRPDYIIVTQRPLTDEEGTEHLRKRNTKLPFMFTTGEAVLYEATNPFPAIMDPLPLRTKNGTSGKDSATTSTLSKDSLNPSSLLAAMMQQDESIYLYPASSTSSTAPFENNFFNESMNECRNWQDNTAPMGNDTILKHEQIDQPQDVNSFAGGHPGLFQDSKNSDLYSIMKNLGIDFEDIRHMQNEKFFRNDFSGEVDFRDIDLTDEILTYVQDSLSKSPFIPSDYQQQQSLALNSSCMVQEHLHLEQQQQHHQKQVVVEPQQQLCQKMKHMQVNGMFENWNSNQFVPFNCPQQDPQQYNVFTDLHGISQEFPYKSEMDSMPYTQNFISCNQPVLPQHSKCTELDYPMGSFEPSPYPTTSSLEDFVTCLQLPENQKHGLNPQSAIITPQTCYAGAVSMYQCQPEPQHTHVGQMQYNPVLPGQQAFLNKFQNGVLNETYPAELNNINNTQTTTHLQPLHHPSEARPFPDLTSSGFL

[19] = target: Peroxisome proliferator-activated receptor gamma/Nuclear receptor coactivator 1 (Homo sapiens, UniProt P37231); format: functional;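 also: agonist potency as compounds enhance coactivator SRC-1 recruitment to PPARgamma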
[20] = target: Peroxisome proliferator-activated receptor gamma/Nuclear receptor coactivator 3 (Homo sapiens, UniProt P37231); format: functional;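 also: agonist potency for raising coactivator recruitment to the receptor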
[21] = target: Peroxisome proliferator-activated receptor gamma/Nuclear receptor coactivator 2 (Homo sapiens, UniProt P37231); format: functional;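 also: agonist potency for raising coactivator recruitment to the receptor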
Streptokinase A = target: T4, Streptokinase A (Streptococcus pyogenes serotype M1, UniProt P10520); assay: viability-normalized secreted streptokinase activity reduction – plasminogen activation absorbance, OD405, dose response (AID 1914); format: functional, Streptococcus pyogenes M1 GAS;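 also: secreted streptokinase activity via plasminogen activation per viability signal from cell pellet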
T4 sequence (P10520 whole entry): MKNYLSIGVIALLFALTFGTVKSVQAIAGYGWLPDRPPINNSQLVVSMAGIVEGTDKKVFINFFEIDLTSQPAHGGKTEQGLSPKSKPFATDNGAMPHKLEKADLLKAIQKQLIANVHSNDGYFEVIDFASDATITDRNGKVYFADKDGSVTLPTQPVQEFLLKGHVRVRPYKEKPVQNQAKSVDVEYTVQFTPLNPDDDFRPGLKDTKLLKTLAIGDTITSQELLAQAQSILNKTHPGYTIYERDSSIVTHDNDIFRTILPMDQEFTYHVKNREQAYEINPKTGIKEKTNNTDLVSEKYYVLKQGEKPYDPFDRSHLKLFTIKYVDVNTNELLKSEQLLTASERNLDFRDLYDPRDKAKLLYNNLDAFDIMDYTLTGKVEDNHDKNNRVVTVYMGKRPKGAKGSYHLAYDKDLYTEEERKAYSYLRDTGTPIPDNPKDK

Streptococcus = assay: GAS UMAA2166 growth inhibition – luminescence, BacTiterGlo, counter-screen for streptokinase expression inhibitor project, dose response (AID 1915); format: functional, organism-based;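 also: potency for reduction of bacterial viability or growth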
[22] = system: Streptococcus sp. 'group A'; assay: Streptococcus pyogenes SK(-)GAS viability under kanamycin – luminescence, BacTiterGlo, confirmation, counter-screen for streptokinase expression inhibitor project, dose response (AID 1900); format: functional, organism-based
Cytochrome P450 2C19 = Cytochrome P450 2C19 (Homo sapiens, UniProt P33261); assay: Cytochrome panel assay with activity outcomes. Panel member name: p450-cyp2c19 Compounds with AC50 equal or less than 10 uM are considered active; format: functional; settings: read-out: AC50
Cytochrome P450 1A2 = target: T5, Cytochrome P450 1A2 (Homo sapiens, UniProt P05177);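 also: PubChem cytochrome P450 panel assay, CYP1A2 panel member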
T5 sequence (P05177 whole entry): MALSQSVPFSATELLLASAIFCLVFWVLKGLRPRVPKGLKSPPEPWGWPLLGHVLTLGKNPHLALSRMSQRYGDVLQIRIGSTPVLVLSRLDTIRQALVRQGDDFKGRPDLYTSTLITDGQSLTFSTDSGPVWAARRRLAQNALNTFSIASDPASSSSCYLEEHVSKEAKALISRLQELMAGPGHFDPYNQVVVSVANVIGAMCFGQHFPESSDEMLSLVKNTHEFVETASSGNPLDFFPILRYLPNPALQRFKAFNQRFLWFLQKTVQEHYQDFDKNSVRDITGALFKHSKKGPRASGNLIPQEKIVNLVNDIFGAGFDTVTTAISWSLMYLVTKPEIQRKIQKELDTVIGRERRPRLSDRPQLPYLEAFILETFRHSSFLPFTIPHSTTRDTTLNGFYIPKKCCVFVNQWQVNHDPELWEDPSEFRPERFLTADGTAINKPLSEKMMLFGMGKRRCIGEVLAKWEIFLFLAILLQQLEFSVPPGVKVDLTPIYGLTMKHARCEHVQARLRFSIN

[23] = Luminescence Cell-Based Dose Retest to Confirm Inhibitors of Cancer Stem Cells. [Related pubchem assays (depositor defined):AID2717, AID2721]; format: functional; settings: Homo sapiens
Cytochrome P450 2D6 = Cytochrome P450 2D6 (Homo sapiens, UniProt P10635);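 also: CYP2D6 member of a cytochrome P450 panel assay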
[24] = target: NAD-dependent protein deacylase sirtuin-5, mitochondrial (Homo sapiens, UniProt Q9NXA8); assay: sirtuin-5 deacylation blockers, concentration series – biochemical, fluorescence imaging, cherry-pick, set 5, dose response (AID 720591);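 also: desuccinylation of succinyl peptide AMC substrate read as fluorescence after trypsin release; potency of inhibitors that lower fluorescence and may act on trypsin instead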

Chain of Mitogen-activated protein kinase 10 (P53779 whole entry): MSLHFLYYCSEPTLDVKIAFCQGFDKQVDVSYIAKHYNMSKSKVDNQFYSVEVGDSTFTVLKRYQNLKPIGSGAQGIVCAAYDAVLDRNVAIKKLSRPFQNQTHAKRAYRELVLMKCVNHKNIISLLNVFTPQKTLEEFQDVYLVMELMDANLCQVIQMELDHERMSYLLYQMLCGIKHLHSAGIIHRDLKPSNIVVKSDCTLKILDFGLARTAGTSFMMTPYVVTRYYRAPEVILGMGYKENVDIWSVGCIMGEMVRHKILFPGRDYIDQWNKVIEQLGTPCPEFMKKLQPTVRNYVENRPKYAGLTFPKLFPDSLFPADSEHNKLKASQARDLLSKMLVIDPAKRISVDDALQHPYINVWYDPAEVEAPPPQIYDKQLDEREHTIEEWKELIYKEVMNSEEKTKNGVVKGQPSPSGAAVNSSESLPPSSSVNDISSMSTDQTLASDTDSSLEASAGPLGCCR
T1 sequence (P08659 whole entry): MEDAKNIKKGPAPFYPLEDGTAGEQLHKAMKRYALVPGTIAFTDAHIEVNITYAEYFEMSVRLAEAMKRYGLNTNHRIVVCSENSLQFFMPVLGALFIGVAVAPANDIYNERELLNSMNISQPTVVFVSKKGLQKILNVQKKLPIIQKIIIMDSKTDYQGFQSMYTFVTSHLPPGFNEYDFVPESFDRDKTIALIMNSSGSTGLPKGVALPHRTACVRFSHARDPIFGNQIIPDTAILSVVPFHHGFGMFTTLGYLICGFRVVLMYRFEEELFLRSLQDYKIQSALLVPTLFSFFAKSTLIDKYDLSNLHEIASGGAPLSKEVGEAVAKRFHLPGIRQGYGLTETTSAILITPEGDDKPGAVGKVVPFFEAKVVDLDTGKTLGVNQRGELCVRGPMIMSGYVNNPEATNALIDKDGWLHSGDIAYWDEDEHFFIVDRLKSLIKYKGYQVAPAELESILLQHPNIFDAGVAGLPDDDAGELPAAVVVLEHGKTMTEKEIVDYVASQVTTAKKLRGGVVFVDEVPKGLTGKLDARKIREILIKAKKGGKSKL
Chain of Peroxisome proliferator-activated receptor gamma/Nuclear receptor coactivator 1 (P37231 whole entry): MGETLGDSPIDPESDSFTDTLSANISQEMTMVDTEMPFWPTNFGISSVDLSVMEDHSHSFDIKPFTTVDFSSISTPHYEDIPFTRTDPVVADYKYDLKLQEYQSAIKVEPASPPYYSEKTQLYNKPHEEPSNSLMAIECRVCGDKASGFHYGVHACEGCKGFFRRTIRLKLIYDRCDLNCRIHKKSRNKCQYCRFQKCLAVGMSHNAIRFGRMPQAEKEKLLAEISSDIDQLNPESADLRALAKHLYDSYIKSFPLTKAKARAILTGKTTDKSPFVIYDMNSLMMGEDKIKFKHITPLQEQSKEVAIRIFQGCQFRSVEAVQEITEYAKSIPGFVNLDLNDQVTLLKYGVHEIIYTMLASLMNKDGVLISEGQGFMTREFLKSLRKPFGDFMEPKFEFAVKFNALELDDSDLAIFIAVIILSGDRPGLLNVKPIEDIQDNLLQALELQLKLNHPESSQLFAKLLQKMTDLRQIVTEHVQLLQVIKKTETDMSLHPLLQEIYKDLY
Chain of Peroxisome proliferator-activated receptor gamma/Nuclear receptor coactivator 1 (Q15788 whole entry, further chain): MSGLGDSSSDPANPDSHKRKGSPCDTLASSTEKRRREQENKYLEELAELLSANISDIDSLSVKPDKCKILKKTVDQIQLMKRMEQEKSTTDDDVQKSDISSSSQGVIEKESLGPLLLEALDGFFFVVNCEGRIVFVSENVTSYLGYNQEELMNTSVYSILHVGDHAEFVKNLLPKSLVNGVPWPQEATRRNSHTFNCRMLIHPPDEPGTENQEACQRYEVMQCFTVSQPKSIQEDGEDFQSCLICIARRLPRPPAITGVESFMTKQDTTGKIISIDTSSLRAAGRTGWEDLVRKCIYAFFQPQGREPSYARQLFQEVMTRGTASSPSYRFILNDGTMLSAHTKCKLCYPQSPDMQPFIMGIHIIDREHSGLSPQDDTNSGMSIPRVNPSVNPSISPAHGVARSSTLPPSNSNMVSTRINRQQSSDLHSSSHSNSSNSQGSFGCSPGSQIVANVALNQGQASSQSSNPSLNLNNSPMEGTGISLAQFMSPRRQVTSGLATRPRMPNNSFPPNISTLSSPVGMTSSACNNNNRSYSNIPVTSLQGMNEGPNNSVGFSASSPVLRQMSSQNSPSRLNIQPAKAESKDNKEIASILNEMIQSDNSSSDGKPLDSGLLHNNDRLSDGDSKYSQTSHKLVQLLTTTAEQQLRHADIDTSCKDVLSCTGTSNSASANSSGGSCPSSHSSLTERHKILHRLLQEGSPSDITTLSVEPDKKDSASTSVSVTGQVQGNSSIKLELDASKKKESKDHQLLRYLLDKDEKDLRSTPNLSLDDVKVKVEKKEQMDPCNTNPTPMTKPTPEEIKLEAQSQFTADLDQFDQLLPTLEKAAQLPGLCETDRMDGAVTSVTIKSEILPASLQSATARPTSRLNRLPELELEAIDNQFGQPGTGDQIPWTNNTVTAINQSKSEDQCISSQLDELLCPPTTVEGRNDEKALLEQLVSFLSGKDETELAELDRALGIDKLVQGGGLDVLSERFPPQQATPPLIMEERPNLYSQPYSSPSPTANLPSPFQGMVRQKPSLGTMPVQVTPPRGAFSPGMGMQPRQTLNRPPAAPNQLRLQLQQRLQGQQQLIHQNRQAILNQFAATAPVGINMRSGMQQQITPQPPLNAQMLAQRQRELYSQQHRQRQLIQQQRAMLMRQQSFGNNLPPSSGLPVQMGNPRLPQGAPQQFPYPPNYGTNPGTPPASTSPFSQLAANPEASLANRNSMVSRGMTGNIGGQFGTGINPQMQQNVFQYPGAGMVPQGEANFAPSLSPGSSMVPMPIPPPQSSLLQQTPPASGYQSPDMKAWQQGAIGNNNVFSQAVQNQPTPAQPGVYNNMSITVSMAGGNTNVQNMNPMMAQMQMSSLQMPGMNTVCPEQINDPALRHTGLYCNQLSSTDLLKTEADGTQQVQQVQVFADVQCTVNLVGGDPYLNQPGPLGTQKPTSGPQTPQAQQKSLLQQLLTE
Chain of Peroxisome proliferator-activated receptor gamma/Nuclear receptor coactivator 3 (P37231 whole entry): as the sequence (P37231 whole entry) above
Chain of Peroxisome proliferator-activated receptor gamma/Nuclear receptor coactivator 3 (Q9Y6Q9 whole entry, further chain): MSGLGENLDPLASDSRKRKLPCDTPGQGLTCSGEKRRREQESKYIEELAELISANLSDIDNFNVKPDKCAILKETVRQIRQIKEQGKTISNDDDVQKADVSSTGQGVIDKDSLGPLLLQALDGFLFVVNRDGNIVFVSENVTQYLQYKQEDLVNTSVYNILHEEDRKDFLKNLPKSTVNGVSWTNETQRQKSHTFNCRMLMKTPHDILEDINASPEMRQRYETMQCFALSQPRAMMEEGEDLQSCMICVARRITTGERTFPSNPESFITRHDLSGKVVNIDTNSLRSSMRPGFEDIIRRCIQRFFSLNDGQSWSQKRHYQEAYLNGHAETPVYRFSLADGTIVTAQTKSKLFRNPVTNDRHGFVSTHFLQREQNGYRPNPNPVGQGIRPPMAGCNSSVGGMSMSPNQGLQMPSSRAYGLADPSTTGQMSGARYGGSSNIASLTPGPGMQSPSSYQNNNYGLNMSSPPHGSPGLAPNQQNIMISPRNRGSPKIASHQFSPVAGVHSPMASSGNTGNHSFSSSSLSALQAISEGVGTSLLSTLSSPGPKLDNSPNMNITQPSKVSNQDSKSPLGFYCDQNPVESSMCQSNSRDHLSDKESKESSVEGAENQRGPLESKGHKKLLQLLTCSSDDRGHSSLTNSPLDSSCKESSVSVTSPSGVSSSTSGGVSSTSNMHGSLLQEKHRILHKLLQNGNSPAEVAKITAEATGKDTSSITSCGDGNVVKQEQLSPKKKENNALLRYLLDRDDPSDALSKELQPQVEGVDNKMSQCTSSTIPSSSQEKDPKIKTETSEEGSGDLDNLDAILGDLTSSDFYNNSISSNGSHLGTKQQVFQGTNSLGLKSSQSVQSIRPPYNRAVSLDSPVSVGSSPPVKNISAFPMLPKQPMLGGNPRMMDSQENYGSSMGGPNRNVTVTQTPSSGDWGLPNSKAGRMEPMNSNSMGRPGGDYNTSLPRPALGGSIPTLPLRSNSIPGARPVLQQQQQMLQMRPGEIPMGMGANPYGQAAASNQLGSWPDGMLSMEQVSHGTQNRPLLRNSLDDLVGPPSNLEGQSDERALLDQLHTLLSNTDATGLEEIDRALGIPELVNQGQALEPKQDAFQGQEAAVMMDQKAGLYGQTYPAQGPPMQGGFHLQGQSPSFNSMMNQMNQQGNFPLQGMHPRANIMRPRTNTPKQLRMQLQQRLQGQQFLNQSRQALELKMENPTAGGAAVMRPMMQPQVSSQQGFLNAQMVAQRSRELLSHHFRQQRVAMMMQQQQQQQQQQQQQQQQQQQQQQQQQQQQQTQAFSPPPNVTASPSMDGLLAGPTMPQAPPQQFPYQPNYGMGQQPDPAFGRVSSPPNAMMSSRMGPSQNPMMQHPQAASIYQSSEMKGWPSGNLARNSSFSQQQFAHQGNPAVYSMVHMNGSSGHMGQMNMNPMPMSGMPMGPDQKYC

Compound: O=C(Nc1cccc(O)c1)c1noc2c1CCCCC2
- EC50 [1]: > 30 µM (not active)
- EC50 [2]: 2.87 µM (active)
- EC50 (HT-1080): > 50 µM (not active)
- EC50 [3]: > 100 µM (not active)
- EC50 [4]: 8.89 µM (active)
- EC50 [5]: 3.4 µM (active)

Compound: O=C(Nc1ncc(Br)s1)C(Cc1ccccc1)n1cccc1 (stereo not drawn)
- EC50 [6]: 13.2 µM (active)
- EC50 [7]: 1.33 µM (active)
- EC50 [8]: 11.9 µM (active)

Compound: COc1ccc(CC(=O)Nc2nc3ccccc3s2)cc1S(=O)(=O)N1CCOCC1
- IC50 [9]: 24.7 µM (not active)

Compound: O=C(Nc1ccc(OC(=O)c2ccccc2)c(-c2nc3ccccc3s2)c1)c1ccccc1
- IC50 [10]: 18.5 µM (not active)
- EC50 [11]: 24.2 µM (active)
- CC50 [12]: > 40 µM (active)
- EC50 [13]: 18.2 µM (active)

Compound: Cc1nc2ncccn2c1-c1csc(Nc2ccc(N(C)C)cc2)n1
- EC50 (cells): 0.163 µM (active)
- EC50 [14]: 0.128 µM (active)
- EC50 [15]: > 120 µM (not active)
- EC50 [16]: 0.108 µM (active)
- IC50 (Nonstructural protein 1): 8.9 µM (active)
- EC50 [4]: < 0.1 µM (inconclusive)
- IC50 (Large T antigen): 6.91 µM (active)

Compound: CC(=O)Nc1ccc(S(=O)(=O)N2CCC(n3cnc4cc(F)ccc43)CC2)cc1
- IC50 [9]: 32.2 µM (not active)

Compound: CCOc1ccccc1NC(=O)Cn1nnc(C(=O)NCc2cccs2)c1N
- EC50 [1]: < 0.1 µM (active)
- EC50 (cells): 0.696 µM (active)
- EC50 [14]: 0.685 µM (active)
- EC50 [15]: 0.146 µM (active)
- EC50 [16]: 0.877 µM (active)
- EC50 [4]: < 0.1 µM (active)
- IC50 [17]: > 80 µM (inactive)

Compound: COc1cccc(-c2nn(C)c3sc(C(=O)N4CCN(c5ccccn5)CC4)cc23)c1
- EC50 [6]: 14 µM (active)
- EC50 [8]: 15.2 µM (active)

Compound: O=C(Nc1cnc2ccccn2c1=O)c1ccc(F)cc1
- IC50 (Estrogen receptor beta): > 50 µM (not active)

Compound: COc1ccc(Cn2c(C)c(C)c(C#N)c2NC(=O)Nc2cccc(C)c2)cc1
- IC50 (Estrogen receptor beta): > 50 µM (not active)

Compound: Cc1csc(SCC(=O)Nc2ccc(Cl)cn2)n1
- EC50 [18]: 1.54 µM (active)

Compound: C=CCn1c(=O)c2ccccc2n2c(SCC(=O)c3ccccc3)nnc12
- EC50 [19]: > 79.4 µM (not active)
- EC50 [20]: > 79.4 µM (not active)
- EC50 [21]: > 79.4 µM (not active)

Compound: Cc1ccc(-c2nc3cc(N)ccc3o2)c(C)c1
- EC50 (HT-1080): > 50 µM (not active)
- EC50 [3]: 1.95 µM (active)

Compound: Cc1cccc(NC(=O)c2nc[nH]c2C(=O)N[C@@H](CC(C)C)C(=O)OCc2ccccc2)c1
- EC50 (Streptokinase A): > 150 µM (not active)
- EC50 (Streptococcus): 3.95 µM (active)
- CC50 [12]: 22.4 µM (active)
- EC50 [22]: 2.12 µM (active)

Compound: COc1cc(C(=O)NCc2cn3ccccc3n2)cc(OC)c1OC
- IC50 [9]: 7.87 µM (active)

Compound: COC(=O)c1ccc(S(=O)(=O)c2ccc(C(=O)OC)s2)s1
- EC50 [19]: 24.6 µM (not active)
- EC50 [20]: 36.7 µM (not active)
- EC50 [21]: 27.1 µM (not active)

Compound: O=C(O)CCCC(=O)Nc1cc([N+](=O)[O-])ccc1O
- EC50 [19]: > 79.4 µM (not active)
- EC50 [20]: > 79.4 µM (not active)
- EC50 [21]: > 79.4 µM (not active)

Compound: O=C(/C=C/c1ccccc1[N+](=O)[O-])c1ccc(F)cc1
- CC50 [12]: > 40 µM (active)

Compound: Oc1oc(-c2ccccc2)nc1/C=N/c1nccs1
- EC50 [18]: 12.3 µM (not active)

Compound: CC(/C=C/c1cccc([N+](=O)[O-])c1)=N/NC(=O)c1cccnc1
- EC50 [18]: > 91.6 µM (not active)

Compound: CC(C)(Sc1ccc(CCN(CCCCC2CCCCC2)C(=O)NC2CCCCC2)cc1)C(=O)O [GW7647]
- AC50 (Cytochrome P450 2C19): 25.1 µM (inconclusive)
- AC50 (Cytochrome P450 1A2): 39.8 µM (inconclusive)
- AC50 [23]: 4.46 µM (active)
- AC50 (Cytochrome P450 2D6): inconclusive
- AC50 [24]: 7.9 µM (active)
